{"source": "patent US7754738B2", "about": "“Pyrazole and pyrrole carboxamide insecticides” (E.I. du Pont de Nemours and Company, priority 2002, dated 2010)", "tested_on": "beet armyworm (Spodoptera exigua)", "experiment": "Test D: control of beet armyworm on corn plant, foliar spray", "type": "in vivo", "conditions": "sprayed at 50 ppm, 1-day-old larvae, 6 days, visual rating", "procedure": "Test compounds were formulated using a solution containing 10% acetone, 90% water and 300 ppm X-77® Spreader Lo-Foam Formula non-ionic surfactant containing alkylarylpolyoxyethylene, free fatty acids, glycols and isopropanol (Loveland Industries, Inc., Greely, Colo. USA), unless otherwise indicated. The formulated compounds were applied in 1 mL of liquid through a SUJ2 atomizer nozzle with ⅛ JJ custom body (Spraying Systems Co. Wheaton, Ill., USA) positioned 1.27 cm (0.5 inches) above the top of each test unit. All experimental compounds in these tests were sprayed at 250 ppm (or lower) and replicated three times. After spraying of the formulated test compound, each test unit was allowed to dry for 1 hour and then a black, screened cap was placed on top. The test units were held for 6 days in a growth chamber at 25° C. and 70% relative humidity. Plant feeding damage was then visually assessed based on foliage consumed.\nFor evaluating control of beet armyworm (Spodoptera exigua) the test unit consisted of a small open container with a 4-5-day-old corn plant inside. This was pre-infested (using a core sampler) with 10-15 1-day-old larvae on a piece of insect diet.\nTest compounds were formulated and sprayed at 250 ppm (or lower) as described for Test A. The applications were replicated three times. […]"}
{"smiles": "O=C(Nc1c(F)cc(F)cc1Br)c1cc(Br)nn1-c1ncccc1Cl", "note": "[Compound 7, N-(2-bromo-4,6-difluorophenyl)-1-(3-chloro-2-pyridinyl)-3-bromo-1H-pyrazole-5-carboxamide]", "values": [{"measurement": "feeding damage (plant protection)", "result": "≤ 20", "unit": "%"}]}
